Laboratory results taken from patent US20220025004A1, “COMPOSITIONS AND METHODS RELATED TO SITE-SPECIFIC IDENTIFICATION OF RNA MODIFICATIONS” (The University of Chicago, priority 2018, published 2022).
Where a SMILES comes first, the peptide text is derived from it. The star is where a group is joined. Cbz = O=C(OCc1ccccc1)*; CHN2 = [N-]=[N+]=C*; tBu = CC(C)(C)*

Key:
Flt3L-DCs = assay: Cross-priming capacity of Flt3L-DCs pre-treated with CA-074 and/or cathepsin L inhibitor III, co-cultured with necrotic B16-OVA (IFN-γ production); type: cell-based, mouse; settings: 5 μg/ml inhibitor for 2 h, necrotic B16-OVA 16 h, OT-I cells 3 days, FIG. 12F
Procedure: (§1) For cross-presentation of tumor neoantigen, CD11b^+ or CD8^+ DC were purified from draining lymph node of WT or Ythdf1^−/− mice six days after inoculating with B16-OVA, MC38-OTIp or MC38-EGFR-SIY. OT-I or 2C naive CD8^+ T cells were isolated from lymph nodes and spleen of 6 to 12-week-old mice. Negative selection was carried out with a negative CD8 isolation kit (StemCell Technologies, Inc.) following manufacturer's instruction. DCs were co-cultured with OT-1 naive CD8 T cells at the ratio of 1:10 for three days with or without 1 μg/ml SIINFEKEL peptide. For cross-presentation of soluble OVA, splenic DCs were sorted and stimulated with 100 ng/ml LPS overnight. DCs were then pulsed with different concentration of OVA (endotoxin free, Sigma) for 5 hours. Cells were washed and co-cultured with OT-I naive CD8^+ T cells for three days. For in vitro cross-presentation of tumor neoantigen, Flt3L-DCs were collected on day 9-10 and co-cultured with necrotic B16-OVA tumor cells overnight. B220^−CD11c^+ cells were subsequently purified. […] IFN-T production was detected by IFN-γ Flex Set CBA assay (BD Bioscience). […] The cross-priming capacity of DC was analyzed by the dilution of CTV in CD8^+ T cells. […] The cross-priming capacity of DCs was then evaluated by the IFN-γ production. […]

wild-type DCs = assay: Cross-priming capacity of wild-type DCs pre-treated with cathepsin inhibitor E64 (ex vivo cDCs, CTV dilution; GMDCs, IFN-γ CBA); type: cell-based, mouse; settings: E64 0.04 μM (ex vivo cDCs, OVA protein) or 0.2-2 μM (GMDCs, B16-OVA); OT-I T cells; FIGS. 12D-12E
Procedure: as §1

B16-OVA tumors = assay: Cathepsin blockade in vivo: B16-OVA tumor growth after intratumoral E64; set-up: species or system mouse; settings: WT mice, s.c. B16-OVA, E64 intratumorally (5 μM or 50 μM) on day 11; FIG. 4B
Procedure: About 1×10^6 B16-OVA or MC38 tumor cells were injected s.c. into the flank of mice. Tumor volumes were measured by length (a) and width (b) and calculated as tumor volume=ab^2/2. Mice with tumor volumes less than 200 mm^3 are considered to be survival. For in vivo depletion experiments, 200 μg of anti-CD8 antibody (clone YTS169.4) or anti-NK1.1 (clone PK136) was injected i.p. three days after tumor inoculation. To block cathepsins in vivo, mice were inoculated with 1×10^6 B16-OVA cells. On day 11, mice with established tumors were treated with E64 intratumorally. For anti-PDL1 treatment, 1×10^6 B16-OVA tumor cells were s.c. injected into the flank of mice. Tumors were allowed to grow for seven days and treated i.p. by anti-PDL1 (clone10F.9G2) or Rat Ig. Tumor-free mice after treatment were monitored over time and the percentage of tumor-regression was calculated. To block IFNγ, tumor-bearing mice were treated with 50 μg anti-IFNγ mAb (clone XMG1.2) intratumorally and PD-L1 expression on tumor cells was evaluated by flow cytometry. All antibodies were ‘InVivoMAb’ from BioXCell. For adoptive transfer of T cells. Rag mice were inoculated with 5×10^5 B16-OVA on day 0. On the same day, T cells were purified from WT or Ythdf1^−/− mice using T cell negative isolation Kit (STEM CELL). 5×10^6 T cells were intravenously (i.v.) injected into Rag2^−/− mice.

| SMILES | efficiency of cross-priming in wild-type DCs (Flt3L-DCs) | efficiency of cross-priming in wild-type DCs (wild-type DCs) | in vivo antitumor response (B16-OVA tumors) |
| --- | --- | --- | --- |
| CCCNC(=O)[C@H]1O[C@@H]1C(=O)N[C@H](C(=O)N1CCC[C@H]1C(=O)OC)[C@@H](C)CC [CA-074] | notably enhanced | – | – |
| CC(C)C[C@H](NC(=O)[C@H]1O[C@@H]1C(=O)O)C(=O)NCCCCN=C(N)N [E64] | – | notably enhanced | markedly improved |
| CC(C)(C)Oc1ccc(C[C@H](NC(=O)[C@H](Cc2ccccc2)NC(=O)OCc2ccccc2)C(=O)C=[N+]=[N-])cc1 [cathepsin L inhibitor III] (Cbz-Phe-Tyr(tBu)-CHN2) | notably enhanced | – | – |
